Results from PubChem BioAssay (NCI).
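These data come from cells grown in 96-well plates and exposed to compound for 48 hours at five concentrations. At the TGI there is no net growth.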

What was measured:
Assay in all cases: NCI anticancer screen, dose series, 48 h
TK-10 renal = tested on: TK-10 renal
COLO 205 colon = tested on: COLO 205 colon
HOP-62 NSCLC = tested on: HOP-62 NSCLC
SF-268 CNS = tested on: SF-268 CNS
MALME-3M melanoma = tested on: MALME-3M melanoma
DU-145 prostate = tested on: DU-145 prostate
SNB-19 CNS = tested on: SNB-19 CNS
MDA-N = tested on: MDA-N
OVCAR-5 ovarian = tested on: OVCAR-5 ovarian
SF-539 CNS = tested on: SF-539 CNS
UO-31 renal = tested on: UO-31 renal
OVCAR-3 ovarian = tested on: OVCAR-3 ovarian
A549 NSCLC = tested on: A549 NSCLC
HCT-15 colon = tested on: HCT-15 colon
786-0 renal = tested on: 786-0 renal
SR leukemia = tested on: SR leukemia
BT-549 breast = tested on: BT-549 breast
LOX IMVI melanoma = tested on: LOX IMVI melanoma
HCT-116 colon = tested on: HCT-116 colon
KM12 colon = tested on: KM12 colon
NCI/ADR-RES ovarian = tested on: NCI/ADR-RES ovarian
RPMI-8226 leukemia = tested on: RPMI-8226 leukemia
OVCAR-8 ovarian = tested on: OVCAR-8 ovarian
SW-620 colon = tested on: SW-620 colon
ACHN renal = tested on: ACHN renal
U251 CNS = tested on: U251 CNS
A498 renal = tested on: A498 renal
SK-MEL-5 melanoma = tested on: SK-MEL-5 melanoma
MDA-MB-435 = tested on: MDA-MB-435
NCI-H23 lung = tested on: NCI-H23 lung
MDA-MB-231 breast = tested on: MDA-MB-231 breast
EKVX NSCLC = tested on: EKVX NSCLC
IGROV1 ovarian = tested on: IGROV1 ovarian
M14 melanoma = tested on: M14 melanoma
NCI-H460 lung = tested on: NCI-H460 lung
HT29 colon = tested on: HT29 colon
CCRF-CEM leukemia = tested on: CCRF-CEM leukemia
SK-MEL-28 melanoma = tested on: SK-MEL-28 melanoma
PC-3 prostate = tested on: PC-3 prostate
SK-OV-3 ovarian = tested on: SK-OV-3 ovarian
SF-295 CNS = tested on: SF-295 CNS
HL-60(TB) leukemia = tested on: HL-60(TB) leukemia
CAKI-1 renal = tested on: CAKI-1 renal
UACC-257 melanoma = tested on: UACC-257 melanoma
MOLT-4 leukemia = tested on: MOLT-4 leukemia
SNB-75 CNS = tested on: SNB-75 CNS

C1=C(CC2=C[P+](c3ccccc3)(c3ccccc3)C=C(c3ccccc3)O2)OC(c2ccccc2)=C[P+]1(c1ccccc1)c1ccccc1
TGI (TK-10 renal): 1670 nM | TGI (COLO 205 colon): 301 nM | TGI (HOP-62 NSCLC): 1880 nM | TGI (SF-268 CNS): 1610 nM | TGI (MALME-3M melanoma): 697 nM | TGI (DU-145 prostate): 1730 nM | TGI (SNB-19 CNS): 1250 nM | TGI (MDA-N): 1220 nM | TGI (OVCAR-5 ovarian): 2390 nM | TGI (SF-539 CNS): 1360 nM | TGI (UO-31 renal): 2940 nM | TGI (OVCAR-3 ovarian): 1160 nM | TGI (A549 NSCLC): 5490 nM | TGI (HCT-15 colon): 3220 nM | TGI (786-0 renal): 2070 nM | TGI (SR leukemia): 538 nM | TGI (BT-549 breast): 309 nM | TGI (LOX IMVI melanoma): 1670 nM | TGI (HCT-116 colon): 1250 nM | TGI (KM12 colon): 1100 nM | TGI (NCI/ADR-RES ovarian): 66700 nM | TGI (RPMI-8226 leukemia): 558 nM | TGI (OVCAR-8 ovarian): 690 nM | TGI (SW-620 colon): 1420 nM | TGI (ACHN renal): 1980 nM | TGI (U251 CNS): 1230 nM | TGI (A498 renal): 2090 nM | TGI (SK-MEL-5 melanoma): 964 nM | TGI (MDA-MB-435): 1110 nM | TGI (NCI-H23 lung): 2200 nM | TGI (MDA-MB-231 breast): 938 nM | TGI (EKVX NSCLC): 1680 nM | TGI (IGROV1 ovarian): 430 nM | TGI (M14 melanoma): 1800 nM | TGI (NCI-H460 lung): 2030 nM | TGI (HT29 colon): 1350 nM | TGI (CCRF-CEM leukemia): 1540 nM | TGI (SK-MEL-28 melanoma): 2020 nM | TGI (PC-3 prostate): 1400 nM | TGI (SK-OV-3 ovarian): 1410 nM | TGI (SF-295 CNS): 1840 nM | TGI (HL-60(TB) leukemia): 446 nM | TGI (CAKI-1 renal): 5390 nM | TGI (UACC-257 melanoma): 1330 nM | TGI (MOLT-4 leukemia): 1600 nM | TGI (SNB-75 CNS): 881 nM
